Experimental data from patent publication US20230303613A1, “3′3′ CYCLIC DINUCLEOTIDES WITH AN ALKENYLENE” (Institute of Organic Chemistry and Biochemistry AS CR, v.v.i, priority 2020, published 2023).
pEC50: −log10 of the molar value. Where two headings read alike, the source gives them in different places.

Legend:
[1] = molecular target: T1, AQ STING (G230A-R293Q) (Homo sapiens, UniProt Q86WV6, G230A/H232R/R293Q); experiment: Differential Scanning Fluorimetry with AQ STING; format: binding; conditions: thermal shift vs apoprotein; 150 µM CDN; truncated human AQ STING 0.1 mg/ml; read-out: DSF ΔTm AQ STING
T1 construct: 8xHis (N, cleaved yes); SUMO (N, cleaved yes); made in house; host or cells: E. coli Rosetta-gami B (DE3)
Excerpt: (§1) Purified PCR products were cleaved with restriction enzymes BamHI (cat. # R0136S, NEB, Ipswich, USA) and NotI (cat. # R0189S, NEB, Ipswich, USA) and cloned into the pSUMO vector linearized with the identical enzymes.
(§2) Bacterial pellets were re-suspended in ice-cold lysis buffer containing 50 mmol.1^-1 TrisCl (cat. # T1503, Sigma Aldrich, Czech Republic) pH 8.0, 300 mmol.1^-1 NaCl, 3 mmol.1^-1 β-mercaptoethanol (cat. # M6250, Sigma Aldrich, Czech Republic), 10% glycerol (cat. # G5516, Sigma Aldrich, Czech Republic) and 20 mmol.1^-1 imidazole (cat. # I5513, Sigma Aldrich, Czech Republic) using Dounce homogenizer. DNase I (cat. # D5025, Sigma Aldrich, Czech Republic) and RNase A (cat. # R6513, Sigma Aldrich, Czech Republic) were added (final concentration 50 µg/ml) together with MgCl2 (final concentration 5 mmol.l^-1) to the homogenate and bacteria were lysed using French Press G-M™ High-Pressure Cell Press Homogenizer (1500 psi, 3 cycles). […] The resin was poured into a chromatography column, washed with 50 ml buffer A (50 mmol.1^-1 TrisCl (pH 8.0), 800 mmol.1^-1 NaCl, 3 mmol.1^-1 β-mercaptol; 10% glycerol; 20 mmol.1^-1 imidazole) and 8-His-SUMO tagged STING proteins were eluted with 15 ml buffer A containing 300 mmol.1^-1 imidazole. […] Proteins were concentrated with Amicon® Ultra-15 10 K device (cat. # UFC901008, Merck Millipore, Billerica, USA) and flash frozen in liquid N2.
(§3) 20 µL solutions of the reaction mixtures were pipetted in triplicates into 96 well optical reaction plates and thermal denaturation of samples were performed on real time PCR cycler (LightCycler® 480 Instrument II - Roche, Basel, Switzerland). The first derivative of the thermal denaturation curves was performed to calculate denaturing temperatures of STING - CDN complexes and STING apoproteins. The thermal shift for each CDN was calculated by subtracting the average denaturing temperature of STING apoprotein from the average denaturing temperature of STING CDN complex.

[2] = molecular target: T2, WT STING (Homo sapiens, UniProt Q86WV6, H232R); experiment: Digitonin assay using 293T wtSTING-FL reporter cells; format: cell-based; conditions: 293T wtSTING-FL cells; 30 minutes in Digitonin buffer, then 5 hours; ISRE firefly luciferase reporter
Excerpt: Two complementary oligonucleotides of the sequence […] […] […] […] […] The oligonucleotides were mixed in equal molar amounts, hybridized, and cleaved by restriction endonucleases HindIII (cat. #. R0104S, NEB, Ipswich, USA) and BglII (cat. # R0144S, NEB, Ipswich, USA). Ultimately, they were ligated into plasmid pGL4.27 (cat. # E6651, Promega, Madison, USA) linearized with the same enzymes. As result the sequence with four ISRE sites was placed upstream of the minimum promoter of firefly luciferase reporter gene.
After 5 minutes incubation at room temperature (RT), 250 µL of the mixture was added dropwise to the cells in one well. Cells were incubated 36 hours at 37° C. with 5% CO2, and then detached with 0.05% Trypsin and 0.22 g/L EDTA (both cat. # L0941, Biowest, Riverside, USA).
Transfected cells were seeded onto poly-D-lysine coated six well plates at density 50,000 cells per 1 cm^2 in DMEM medium with high glucose containing 10% heat inactivated FBS, 30 µg/mL blasticidin (cat. # ant-bl-05, InvivoGen, San Diego, USA), 0.06 mg/ml Penicillin G and 0.1 mg/ml Streptomycin Sulfate (both cat. #. L0018, Biowest, Riverside, USA). The medium was replenished every 3 - 4 days until visible colonies of cells resistant to blasticidin were formed.
Blasticidin resistant cells stably expressing WT STING were further transfected with […] plasmid following the same procedure as described above. […] Homogeneous culture of stably double transfected cells was prepared by limiting dilution of cells in 96 well plates and wells with cells were selected that originated from a single cell.
The medium was removed next day and three fold serial dilutions of compounds in Digitonin buffer containing 50 mmol.l^-1 HEPES (cat. # H3375, Sigma Aldrich, Czech Republic) pH 7.0, 100 mmol.1^-1 KCl, 3 mmol.l^-1 MgCl2, 0.1 mmol.l^-1 DTT (cat. # D0632, Sigma Aldrich, Czech Republic), 85 mmol.1^-1 Sucrose (cat. # S7903, Sigma Aldrich, Czech Republic), 0.2% BSA (cat. # A2153, Sigma Aldrich, Czech Republic), 1 mmol.l^-1 ATP (cat. # A1852, Sigma Aldrich, Czech Republic), 0.1 mmol.1^-1 GTP (cat. # G8877, Sigma Aldrich, Czech Republic), and 10 µg/mL Digitonin A (cat. # D141, Sigma Aldrich, Czech Republic) were added to the cells. The buffer was removed after 30 minutes incubation at 37° C. with 5% CO2, the cells were washed once with 100 µl of cultivation medium, and 100 µl of medium was added to each well. The plates with cells were incubated for 5 hours at 37° C. with 5% CO2, 50µl of the medium was removed and 30 µl of ONE-Glo^Tm Luciferase Assay System reagent (cat. # E6120, Promega, Madison, USA) was added to each well. Luminescence was read on Synergy H1 (Biotek, Winooski, USA).
Target sequence in this assay (Q86WV6 whole entry H232R): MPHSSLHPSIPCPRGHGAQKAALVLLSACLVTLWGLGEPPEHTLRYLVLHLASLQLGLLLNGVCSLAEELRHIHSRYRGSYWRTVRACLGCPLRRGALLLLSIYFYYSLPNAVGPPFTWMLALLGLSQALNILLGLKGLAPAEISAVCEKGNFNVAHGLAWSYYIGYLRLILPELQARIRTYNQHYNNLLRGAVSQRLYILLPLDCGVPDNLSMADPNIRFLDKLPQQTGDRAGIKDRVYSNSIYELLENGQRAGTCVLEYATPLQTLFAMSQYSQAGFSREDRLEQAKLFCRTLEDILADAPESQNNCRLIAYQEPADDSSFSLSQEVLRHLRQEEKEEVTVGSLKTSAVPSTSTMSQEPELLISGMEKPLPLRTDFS

[3] = molecular target: T2, WT STING; experiment: 293T WT STING standard reporter assay; format: cell-based; conditions: 293T wtSTING-FL cells; 7 hours with compound, no digitonin; ISRE firefly luciferase reporter
Target sequence in this assay (Q86WV6 whole entry H232R): as above

[4] = test system: peripheral blood mononuclear cell (PBMC); experiment: Peripheral blood mononuclear cell assay; format: cell-based; conditions: PBMC, 1h with compound, washed, 15 hour incubation
Method: Selected compounds were tested in an in vitro peripheral blood mononuclear cell (PBMC) assay. Freshly isolated PBMCs were seeded into U-shaped shaped 96-well plates at desity 500,000 cells per well in 50 µl of RPMI 1640 medium supplemented with 10% heat inactivated FBS. Serially dilluted tested compounds were added to wells in 50 µl of cultivation medium and cell were incubated with compounds for 1h at 37° C. with 5% CO2. Plates with cells were then spun 500 g for 5 minutes and medium was removed. Cells were washed twice with the cell culture medium by the use of centrifugation and gently resuspended in 100 µl medium without compounds. After 15 hour incubation at 37° C. with 5% CO2, the cell culture medium was collected and the levels of interferon-alpha (INF-α), interferon-gamma (INF-γ) and tumor necrosis factor-alpha (TNF-α) were determined with ProcartaPlex Assays (ThermoFisher, Waltham, USA) and MAGPIX System (Merck KGaA, Darmstadt, Germany).

[5] = molecular target: T2, WT STING; experiment: Differential Scanning Fluorimetry with WT STING; format: binding; design: 8xHis (N, cleaved yes); SUMO (N, cleaved yes); made in house; host or cells: E. coli Rosetta-gami B (DE3); conditions: thermal shift vs apoprotein; 150 µM CDN; truncated human WT STING 0.1 mg/ml; read-out: DSF ΔTm WT STING
Excerpt: as §1, §2, §3
Target sequence in this assay (Q86WV6 140-343 H232R): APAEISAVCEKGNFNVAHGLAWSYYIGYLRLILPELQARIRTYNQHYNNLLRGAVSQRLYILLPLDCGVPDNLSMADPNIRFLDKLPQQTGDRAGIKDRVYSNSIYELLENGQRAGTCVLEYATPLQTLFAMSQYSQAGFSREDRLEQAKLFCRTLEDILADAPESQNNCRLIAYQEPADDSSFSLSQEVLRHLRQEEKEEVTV

T1 sequence (Q86WV6 140-343 G230A/H232R/R293Q): as the sequence (Q86WV6 140-343 H232R) above, with G91A, R154Q counted along it

- ΔTm at 150 µM [1]: 11.6 °C
- pEC50 [2]: 7.52
- pEC50 [3]: 5.00
- ΔTm at 150 µM [5]: 6.9 °C
SMILES: Nc1ncnc2c1ncn2[C@@H]1O[C@@H]2/C=C/P(=O)(O)O[C@H]3[C@@H](F)[C@H](n4cnc5c(N)ncnc54)O[C@@H]3COP(=O)(O)O[C@H]2[C@H]1F [Compound 53]
- pEC50 ([4]; IFN-α level in medium, read-out: PBMC EC50 IFN-α): 3.92
- pEC50 ([4]; IFN-γ level in medium, read-out: PBMC EC50 IFN-γ): 4.44
- pEC50 ([4]; TNF-α level in medium, read-out: PBMC EC50 TNF-α): 4.27
